# Values quoted from earlier work, collected in patent publication US20090041869A1, “METHOD OF REDUCING INSECT RESISTANT PESTS IN […]” (PIONEER HI-BRED INTERNATIONAL, INC., priority 2004, published 2009).
# “Also recorded” adds a separate entry of the source. Read-outs that look alike come from different tables or passages of the source.
# System: European corn borer, Ostrinia nubilalis
# Conditions: Cry 1F selected colony vs unselected colony, likelihood ratio test at α=0.05
Substance,cross resistance of the Cry 1F selected strain to other Bt toxins,cross resistance of the Cry 1F selected strain to other Bt toxins (listed as Cry1 Ab)
Cry 1Ac: Bt crystal protein toxin assessed for cross resistance,6.89 fold,–
Cry 1Ab: Bt crystal protein toxin assessed for cross resistance,No cross resistance; also recorded: does not lead to loss of susceptibility,no cross resistance
